Data taken from ChEMBL document CHEMBL3885861, “Open TG-GATES”.

Organism: Rattus norvegicus
Test: Open TG-GATES - Regimen: Daily Repeat
Format: toxicity, organism-based, Sprague-Dawley
Design: regimen Daily Repeat, gender Male, age 6 weeks
Conditions: in vivo, po, 1 mg/kg, […], route gavage, dose level Middle; for APTT / Bas / Eos / Fbg / Hb / Ht / Lym / MCH / MCHC / MCV / Mono / Neu / PT / Plat / RBC / Ret / WBC: tissue Blood; for KIDNEY_L / KIDNEY_R / KIDNEY_TOTAL: tissue Kidney; for LIVER: tissue Liver; for A/G / ALP / ALT / AST / BUN / CRE / Ca / Cl / DBIL / GLC / IP / K / LDH / Na / PL / RALB / TBIL / TC / TG / TP / gamma-GTP: tissue Plasma

Q: Which TERMINAL_BW (time 14 day) does the source give for CN1C(C(=O)Nc2ccccn2)=C(O)c2sc(Cl)cc2S1(=O)=O [LORNOXICAM] here?
A: Its TERMINAL_BW is 307.1 g.

Q: What about the TERMINAL_BW (time 28 day) of the same compound?
A: The TERMINAL_BW was 392.3 g.

Q: What about the APTT (time 7 day) of the same compound?
A: Its APTT is 18.4 s.

Q: And the Bas (time 7 day)?
A: Its Bas is 0.8%.

Q: And the Eos (time 7 day)?
A: Its Eos is 1%.

Q: What about the Fbg (time 7 day) of the same compound?
A: The Fbg was 239.8 mg/dL.

Q: What about the Hb (time 7 day) of the same compound?
A: Its Hb is 12.9 g/dL.

Q: What about the Ht (time 7 day) of the same compound?
A: Its Ht is 38.3%.

Q: And the Lym (time 7 day)?
A: Its Lym is 71.6%.

Q: What about the MCH (time 7 day) of the same compound?
A: The MCH was 20.9 pg.

Q: And the MCHC (time 7 day)?
A: Its MCHC is 33.6%.

Q: What about the MCV (time 7 day) of the same compound?
A: The MCV was 62.1 fL.

Q: And the Mono (time 7 day)?
A: Its Mono is 2.8%.

Q: What about the Neu (time 7 day) of the same compound?
A: Its Neu is 23.6%.

Q: And the PT (time 7 day)?
A: Its PT is 11.5 s.

Q: What about the Plat (time 7 day) of the same compound?
A: Its Plat is 139.1 x10_4/uL.

Q: What about the RBC (time 7 day) of the same compound?
A: The RBC was 617 x10_4/ul.

Q: And the Ret (time 7 day)?
A: Its Ret is 5.7%.

Q: And the WBC (time 7 day)?
A: Its WBC is 135.6 x10_2/uL.

Q: And the APTT (time 14 day)?
A: The APTT was 20.3 s.

Q: What about the Bas (time 14 day) of the same compound?
A: The Bas was 0.8%.

Q: And the Eos (time 14 day)?
A: Its Eos is 0.8%.

Q: And the Fbg (time 14 day)?
A: The Fbg was 291.6 mg/dL.

Q: And the Hb (time 14 day)?
A: The Hb was 12.9 g/dL.

Q: What about the Ht (time 14 day) of the same compound?
A: Its Ht is 38.8%.

Q: What about the Lym (time 14 day) of the same compound?
A: The Lym was 62.2%.

Q: And the MCH (time 14 day)?
A: The MCH was 19.8 pg.

Q: And the MCHC (time 14 day)?
A: Its MCHC is 33%.

Q: What about the MCV (time 14 day) of the same compound?
A: Its MCV is 59.9 fL.

Q: And the Mono (time 14 day)?
A: The Mono was 3.8%.

Q: And the Neu (time 14 day)?
A: The Neu was 31.8%.

Q: What about the PT (time 14 day) of the same compound?
A: Its PT is 11.4 s.

Q: What about the Plat (time 14 day) of the same compound?
A: The Plat was 151.7 x10_4/uL.

Q: And the RBC (time 14 day)?
A: Its RBC is 648 x10_4/ul.

Q: What about the Ret (time 14 day) of the same compound?
A: Its Ret is 5.7%.

Q: And the WBC (time 14 day)?
A: The WBC was 137.4 x10_2/uL.

Q: And the APTT (time 28 day)?
A: Its APTT is 18.9 s.

Q: And the Bas (time 28 day)?
A: Its Bas is 0.8%.

Q: And the Eos (time 28 day)?
A: The Eos was 1%.

Q: What about the Fbg (time 28 day) of the same compound?
A: Its Fbg is 247.2 mg/dL.

Q: And the Hb (time 28 day)?
A: The Hb was 15.2 g/dL.

Q: What about the Ht (time 28 day) of the same compound?
A: Its Ht is 44.2%.

Q: And the Lym (time 28 day)?
A: The Lym was 71%.

Q: And the MCH (time 28 day)?
A: The MCH was 19.6 pg.

Q: And the MCHC (time 28 day)?
A: Its MCHC is 34.2%.

Q: And the MCV (time 28 day)?
A: Its MCV is 57.1 fL.

Q: What about the Mono (time 28 day) of the same compound?
A: The Mono was 2.5%.

Q: What about the Neu (time 28 day) of the same compound?
A: Its Neu is 24%.

Q: What about the PT (time 28 day) of the same compound?
A: The PT was 11.7 s.

Q: What about the Plat (time 28 day) of the same compound?
A: Its Plat is 115.1 x10_4/uL.

Q: What about the RBC (time 28 day) of the same compound?
A: The RBC was 775.8 x10_4/ul.

Q: What about the Ret (time 28 day) of the same compound?
A: Its Ret is 2.8%.

Q: What about the WBC (time 28 day) of the same compound?
A: Its WBC is 161.4 x10_2/uL.

Q: And the KIDNEY_L (time 7 day)?
A: Its KIDNEY_L is 1.3 g.

Q: What about the KIDNEY_R (time 7 day) of the same compound?
A: The KIDNEY_R was 1.3 g.

Q: What about the KIDNEY_TOTAL (time 7 day) of the same compound?
A: Its KIDNEY_TOTAL is 2.6 g.

Q: What about the KIDNEY_L (time 14 day) of the same compound?
A: The KIDNEY_L was 1.5 g.

Q: What about the KIDNEY_R (time 14 day) of the same compound?
A: The KIDNEY_R was 1.4 g.

Q: And the KIDNEY_TOTAL (time 14 day)?
A: Its KIDNEY_TOTAL is 2.9 g.

Q: And the KIDNEY_L (time 28 day)?
A: Its KIDNEY_L is 1.5 g.

Q: What about the KIDNEY_R (time 28 day) of the same compound?
A: Its KIDNEY_R is 1.5 g.

Q: And the KIDNEY_TOTAL (time 28 day)?
A: Its KIDNEY_TOTAL is 3.1 g.

Q: What about the LIVER (time 7 day) of the same compound?
A: The LIVER was 12.7 g.

Q: What about the LIVER (time 14 day) of the same compound?
A: The LIVER was 12.3 g.

Q: What about the LIVER (time 28 day) of the same compound?
A: Its LIVER is 15.1 g.

Q: What about the A/G (time 7 day) of the same compound?
A: The A/G was 1.4.

Q: What about the ALP (time 7 day) of the same compound?
A: Its ALP is 831.8 IU/L.

Q: And the ALT (time 7 day)?
A: Its ALT is 41.6 IU/L.

Q: What about the AST (time 7 day) of the same compound?
A: Its AST is 75.6 IU/L.

Q: And the BUN (time 7 day)?
A: The BUN was 13.4 mg/dL.

Q: What about the CRE (time 7 day) of the same compound?
A: Its CRE is 0.4 mg/dL.

Q: And the Ca (time 7 day)?
A: The Ca was 10.6 mg/dL.

Q: And the Cl (time 7 day)?
A: The Cl was 104 meq/L.

Q: What about the DBIL (time 7 day) of the same compound?
A: Its DBIL is 0.086 mg/dL.

Q: And the GLC (time 7 day)?
A: The GLC was 194 mg/dL.

Q: What about the IP (time 7 day) of the same compound?
A: The IP was 7.4 mg/dL.

Q: What about the K (time 7 day) of the same compound?
A: Its K is 4.1 meq/L.

Q: And the LDH (time 7 day)?
A: Its LDH is 210.2 IU/L.

Q: What about the Na (time 7 day) of the same compound?
A: Its Na is 141.2 meq/L.

Q: What about the PL (time 7 day) of the same compound?
A: Its PL is 136 mg/dL.

Q: What about the RALB (time 7 day) of the same compound?
A: Its RALB is 3.2 g/dL.

Q: And the TBIL (time 7 day)?
A: The TBIL was 0.1 mg/dL.

Q: And the TC (time 7 day)?
A: Its TC is 70.6 mg/dL.

Q: What about the TG (time 7 day) of the same compound?
A: Its TG is 93 mg/dL.

Q: And the TP (time 7 day)?
A: The TP was 5.5 g/dL.

Q: What about the gamma-GTP (time 7 day) of the same compound?
A: Its gamma-GTP is 1.2 IU/L.

Q: What about the A/G (time 14 day) of the same compound?
A: Its A/G is 1.2.

Q: What about the ALP (time 14 day) of the same compound?
A: The ALP was 815.8 IU/L.

Q: And the ALT (time 14 day)?
A: The ALT was 31.6 IU/L.

Q: What about the AST (time 14 day) of the same compound?
A: The AST was 79 IU/L.

Q: And the BUN (time 14 day)?
A: Its BUN is 21.8 mg/dL.

Q: And the CRE (time 14 day)?
A: Its CRE is 0.5 mg/dL.

Q: And the Ca (time 14 day)?
A: Its Ca is 10.3 mg/dL.

Q: What about the Cl (time 14 day) of the same compound?
A: Its Cl is 104.6 meq/L.

Q: What about the DBIL (time 14 day) of the same compound?
A: The DBIL was 0.086 mg/dL.

Q: And the GLC (time 14 day)?
A: The GLC was 189.6 mg/dL.

Q: What about the IP (time 14 day) of the same compound?
A: Its IP is 7.1 mg/dL.

Q: And the K (time 14 day)?
A: Its K is 4 meq/L.

Q: And the LDH (time 14 day)?
A: The LDH was 225 IU/L.

Q: What about the Na (time 14 day) of the same compound?
A: Its Na is 141.8 meq/L.

Q: What about the PL (time 14 day) of the same compound?
A: The PL was 131.2 mg/dL.

Q: And the RALB (time 14 day)?
A: Its RALB is 2.9 g/dL.

Q: And the TBIL (time 14 day)?
A: Its TBIL is 0.1 mg/dL.

Q: And the TC (time 14 day)?
A: Its TC is 65.6 mg/dL.

Q: And the TG (time 14 day)?
A: Its TG is 106.2 mg/dL.

Q: And the TP (time 14 day)?
A: The TP was 5.3 g/dL.

Q: And the gamma-GTP (time 14 day)?
A: Its gamma-GTP is 2 IU/L.

Q: What about the A/G (time 28 day) of the same compound?
A: Its A/G is 1.3.
